Entries after “also recorded” stand apart in the source; their conditions may differ.
Legend:
PA and DAG = test: Elevation of PA and DAG upon primary stimulus; format: cell-based; conditions: e.g. interleukin-1 or TNF
Procedure: (§1) One in vitro assay measures inhibition of the relevant enzymes lysophosphatidic acid acyltransferase (LPAAT) and phosphatidic acid phosphoryl hydrolase (PAPH). The assay involves incubating of target cells with a primary stimulus (e.g., a variety of cytokines, growth factors, oncogene products, putative therapeutic agents, irradiation, viral infection, toxins, bacterial infection and the products thereof, and any stimulus which, if not counteracted, has a deleterious effect on the target cell) in the presence or absence of 1-(5-oxohexyl)-3-methylxanthineat varying dosage levels. Target cells include, for example, subcellular entities, such as, microsomes derived from mesenchymal and/or ectodermal cells, particularly microsomes from marrow stromal cells or human or rat mesangial cells; microsomes or synaptosomes derived from bovine brain; plasma membrane-enriched microsomes or plasma membranes derived as described in Bursten et al. (J. Biol. Chem. […]:20732-20743, 1991) detergent-solubilized microsomes; synaptosomes, and membranes or other cell preparations solubilized using, for example, NP-40,Miranal, SDS or other neutral detergents; and detergent-solubilized or further purified preparations of cell proteins, including the proteins LPAAT and/or PAPH. […] Thus, the relevant unsaturated (non-arachidonic) PA and DAG subspecies may be detected. […]

[1] = tested on: U937 cells to TNF activated human umbilical vein endothelial cells (HUVEC); test: Adhesion of U937 cells to TNF-activated HUVEC; format: cell-based; conditions: FIG. 2
Procedure: This example illustrates the effects of CT1505 to inhibit adhesion of U937 cells to TNF-activated HUVEC cells In this experiment, HUVEC cells were induced with human TNF-α(20ng/ml) and incubated with drug (CT1505) at varying concentrations for 14-16 hrs. U937 cells (a human monocyte cell line) were incubated and labeled with BCECF (10 μg/ml), a fluorescent dye. The U937 cell preparation (2.5×10^4 cells per well) was layered on top of the activated HUVEC cells. The cells were reverse spun to remove partially adhering and nonadhering U937 cell. The adherent U937 cells were measured by fluorescence on a fluorescent plate reader.

[2] = tested on: PBMC (peripheral blood mononuclear cells); test: Mixed lymphocyte reaction; format: cell-based, human; conditions: CT1505 versus PTX, FIG. 5
Excerpt: Various in vitro assays can be used to measure effects of 1-(5-oxohexyl)-3methylxanthine to module immune activity and have antitumor activity using a variety of cellular types. For example, a mixed lymphocyte reaction (MLR) provides a valuable screening tool to determine biological activity of 1-(5-oxohexyl)-3-methylxanthine. In the MLR, PBMCs (peripheral blood mononuclear cells) are obtained by drawing whole blood from healthy volunteers in a heparinized container and diluted with an equal volume of hanks balanced salt solution (HBSS). This mixture is layered on a sucrose density gradient, such as a Ficoll-Hypaque® gradient (specific gravity 1.08), and centrifuged at 1000×g for 25 minutes at room temperature or cooler. PBMC are obtained from a band at a plasma-Ficoll interface, separated and washed at least twice in a saline solution, such as HBSS. Contaminating red cells are lysed, such as by ACK lysis for 10 min at 37° C., and the PBMCs are washed twice in HBSS. The pellet of purified PBMCs is resuspended in complete medium, such as RPMI 1640 plus 20% human inactivated serum. Proliferative response of PBMC to allogeneic stimulation is determined in a two-way MLR performed in a 96-well microtiter plate. […] At the conclusion of the incubation tritiated thymidine is added (for example, 1 μCi/well of 40 to 60 Ci/mmole) and proliferation determined by liquid scintillation counting. […]

[3] = tested on: L929 murine fibroblast cells; test: L929 TNF cytotoxicity assay (protection, fluorescent viability dye); format: cell-based; conditions: TNF-α 500 pg/ml, 40 hrs at 37° C; 2 hrs preincubation; FIG. 1
Procedure: The cells plus (or minus) drug plus TNF were incubated for 40 hrs at 37° C.

[4] = tested on: LD-2 cells, a human malignant melanoma cell line; test: Cytotoxicity on LD-2 cells; format: cell-based; conditions: various concentrations, FIG. 3
Procedure: The cells were treated with various concentrations of CT1505 and later stained for cell viability with a fluorescence stain.
(§2) 1-(5-oxohexyl)-3-methylxanthine was investigated for cytotoxicity to determine appropriate doses for biological activity assays and to prevent cytotoxic reactions in in vitro assays when characterizing activity. Cells (e.g., NIH-3T3, Ras transformed 3T3 cells, malignant melanoma LD2 cells, etc.) are added to microtiter plates and drug is added about two days after plating. Cell viability is determined using a fluorescent viability stain (2', 7'-bis-(2-carboroxyethyl)-5-(and -6)-carboxyfluorescein acetoxymethyl ester, BCECF excitation 488 nm and emission 525 nm) 24,48 or 72 hours after addition of the drug.
This example illustrates that CT1505 has cytotoxic activity for the LD-2 tumor cell line. Cytotoxicity of LD-2 cells was determined with concentrations of CT1505 up to 1.0 mM (see FIG. 3).

NIH-3T3 Ras cells = test: Cytotoxicity on Ras transformed NIH-3T3 cells; format: cell-based; conditions: various concentrations, FIG. 4
Procedure: (§3) The cells were treated with various concentrations of CT1505 (in the mM range on a log scale) and later stained for cell viability with a fluorescence stain.
as §2
(§4) This example illustrates that CT1505 has cytotoxic activity for NIH-3T3 and NIH-Ras transformed tumor cells. Cytotoxicity of the cells was determined with concentrations of CT1505 up to 1.0 mM (see FIG. 4).

[5] = tested on: synaptosomes stimulated with acetylcholine and/or epinephrine (PA and DAG); test: PA and DAG levels in stimulated synaptosomes; format: biochemical
Procedure: as §1

NIH-3T3 cells = test: Cytotoxicity on NIH-3T3 cells; format: cell-based; conditions: various concentrations, FIG. 4
Procedure: as §3, §2, §4

[6] = U.S. Pat. Nos 4,515,795 and 4,576,947; cited from earlier work
[7] = tested on: polymorphonuclear leukocytes; conditions: in response to a stimulator of chemotaxis; U.S. Pat. No. 4,636,507; cited from earlier work
certain cytokines = conditions: U.S. Pat. Nos. 4,965,271 and 5,096,906; cited from earlier work
TNF = conditions: normal volunteers; cited from earlier work

Row | SMILES | effect on elevation of PA and DAG levels (PA and DAG) | concentration range of adhesion inhibitory activity ([1]; TNF-activated HUVEC) | inhibition of adhesion of U937 cells to activated HUVEC ([1]; TNF-α 20 ng/ml, 14-16 hrs) | immune modulating activity [2] | protection of fibroblast cells from TNF cytotoxicity [3] | cytotoxicity [4] | cytotoxicity (NIH-3T3 Ras cells) | effect on enhanced PA and DAG levels [5] | cytotoxicity (NIH-3T3 cells) | cerebral blood flow [6] | chemotaxis in polymorphonuclear leukocytes [7] | activity of certain cytokines to affect chemotaxis (certain cytokines) | TNF levels (TNF)
1 | CC(=O)CCCCn1c(=O)c2[nH]cnc2n(C)c1=O [CT1505, 1-(5-oxohexyl)-3-methylxanthine] | reverses this elevation | tenths of mM | inhibits adhesion of U937 cells to TNF activated human umbilical vein endothelial cells; also recorded: inhibited the inflammatory response of the activated HUVEC cells to adhere U937 monocytes in a dose response fashion | more potent immune modulating activity with CT1505 than with PTX; also recorded: more potent drug for cause immune modulating activity than was PTX | protected the fibroblast cells from TNF cytotoxicity better than PTX and much better than the control cells | cytotoxic at higher concentrations | cytotoxic at higher concentrations | able to decrease enhanced levels of a relevant PA and DAG | cytotoxic at higher concentrations |  |  |  | 
2 | CC(O)CCCCn1c(=O)c2c(ncn2C)n(C)c1=O (centres unmarked) [M1, 1-(5-hydroxyhexyl)-3,7-dimethylxanthine] |  |  |  |  |  |  |  |  |  | increasing cerebral blood flow | stimulate chemotaxis |  | 
3 | CC(=O)CCCCn1c(=O)c2c(ncn2C)n(C)c1=O [PTX, 1-(5-oxohexyl)-3,7-dimethylxanthine] |  |  |  |  |  |  |  |  |  |  | stimulate chemotaxis | inhibit activity of certain cytokines | TNF levels were higher among PTX recipients

From US5795897A, “Oxohexyl methylxanthine compounds” (Cell Therapeutics, Inc., priority 1994, dated 1998)
